We go through three compounds from ChEMBL document CHEMBL1150967, “Two new diterpene glycosides from the soft coral lemnalia bournei” (J Nat Prod, 1998).

Type in all cases: functional, cell-based
Assay [1] can be described thus: Cytotoxicity against human HepA cells.
Assay [2] in a line: Cytotoxicity against mouse S180A cells.
Assay [3] can be described thus: Cytotoxicity against mouse EAC cells. Conditions: Ehrlich.

Structures are written as SMILES. ≈ marks a conversion by molar mass, not a printed value.

In general, IC50 refers to the concentration needed to halve the response being measured. Turning to `CC(=O)O[C@@H]1[C@@H](O)[C@@H]2O[C@@H]([C@H](C)CCC[C@H](C)[C@@H]3CC=C(C)[C@H]4CCC(C)=C[C@@H]34)OC[C@@H](O2)[C@H]1O` [LEMNABOURSIDE B], the IC50 in assay [1] is 33.5 µg/mL (≈ 68 µM); in assay [2], 40 µg/mL (≈ 81.2 µM); in assay [3] it was 73.3 µg/mL (≈ 149 µM).
Regarding `CC(=O)O[C@H]1[C@H](O)[C@@H](O)[C@@H]2O[C@@H]([C@H](C)CCC[C@H](C)[C@@H]3CC=C(C)[C@H]4CCC(C)=C[C@@H]34)OC[C@H]1O2` [LEMNABOURSIDE C], the IC50 in assay [1] was found to be 41.4 µg/mL (≈ 84 µM); in assay [2] it was 187 µg/mL (≈ 379 µM); in assay [3] it was 40.5 µg/mL (≈ 82.2 µM).
For `CC1=C[C@H]2[C@H]([C@H](C)CCC[C@@H](C)C3OC[C@H]4O[C@@H](O3)[C@H](O)[C@@H](O)[C@@H]4O)CC=C(C)[C@H]2CC1` (some centres undefined) [LEMNABOURSIDE] the same measures were 31.6 µg/mL (≈ 70.1 µM), 27.4 µg/mL (≈ 60.8 µM) and 97.8 µg/mL (≈ 217 µM).
